We go through seven compounds from US5503843A, “Transdermal delivery of alpha adrenoceptor blocking agents” (priority 1994, dated 1996).

For data set [1] the following is noted: cited from earlier work.
Data set [2] deals with smooth muscle originating from the trigone muscle at the base of the bladder. The following applies: trigone smooth muscle preparations; cited from earlier work.
In data set [3] the test system is alpha1 A and alpha1 B adrenoceptors. The following applies: Michel et al.; cited from earlier work.
The conditions of data set [4]: in vivo; cited from earlier work.
The test system of a further data set is rabbit trigone. The following applies: in vitro; cited from earlier work.
The subject of data set [5] is rabbit urethral ring tissues. The following applies: in vitro; cited from earlier work.
Data set [6] is described as follows: pKa of alpha blockers (Table 1). The data set is classed as physicochemical. From the text: However, the solubility improvement largely depends on the choice of solvent, any specific common ion interaction and the size and polarity of the counterion. Often, salts prepared from strong acids are freely soluble in water. […] Suitable alkane- or arenesulfonic acid anions include […], tosylate (para-toluenesulfonate), mesylate (methanesulfonate), napsylate (1-napthalene-2-sulfonate), besylate (benzene sulfonate) and […].

The nature of data set [7]: Solubility of Rec 15/2739 free base in various vehicles (Table 2). The data set is classed as physicochemical. Here is the method:
Table 2 provides the solubility of the free base forms of the alpha blocker Rec 15/2739 in various vehicles. Solubility of free base is indicated as μg per ml of medium. PBS indicates phosphate buffered saline (20 mM phosphate and 0.9% NaCl).

Data set [8] deals with alpha1 adrenergic receptors. The following applies: WO93/17007; cited from earlier work.
The subject of data set [9] is mammalian lower urinary tract. The following applies: in vivo; cited from earlier work.
A further data set has as its system rat bladder strip. The following applies: WO93/17007; cited from earlier work.
The subject of data set [10] is rabbit prostrate, urethra, and vesical triangle. The following applies: Honda et al.; cited from earlier work.
Data set [11] concerns guinea pig prostrate, urethra, and vesical triangle. The following applies: Honda et al.; cited from earlier work.
In data set [12] the test system is human urethra and vesical triangle. The following applies: Honda et al.; cited from earlier work.

≈ marks a conversion by molar mass, not a printed value. Read-outs that look alike come from different tables or passages of the source.

On to `COc1cc2nc(N(C)CCCNC(=O)C3CCCO3)nc(N)c2cc1OC` (stereo not drawn) [Alfuzosin, N-3-(4-Amino-6,7dimethoxy-2-quinazolinyl) methylamino!propyl!tetrahydro-2-furancarboxamide], for which the plasma half life in data set [1] (S. Lieto di Priolo et al.) was 4 to 9 h. Moreover, the mean oral bioavailability in [1] (oral, Wilde et al.) is given as 64%. Besides, the “activity in altering phenylephrine induced contractions” value in data set [2] is listed as “shows activity in altering the phenylephrine induced contractions”. Moreover, in [3], the “selectivity for alpha1 subtypes” value was “lacks any relevant selectivity for alpha1 subtypes”.
Take `COc1cc2nc(N3CCN(C(=O)c4ccco4)CC3)nc(N)c2cc1OC` [Prazosin, reference compound]: the “most common side effect” value in [4] is given as “hypotension”.
For `COc1cc2nc(N(C)CCCNC(=O)[C@H]3CCCO3)nc(N)c2cc1OC` [R enantiomer], the “potency in antagonizing phenylephrine induced contraction (R vs S enantiomer)” value (with rabbit trigone; in [5]) was “equally potent” throughout.
What is called pKa is the negative logarithm of the acid dissociation constant. One may read the solubility as how much of the substance goes into solution per volume. The low end stands for a poorly soluble substance, the high end for a readily soluble substance. As for `COc1ccccc1N1CCN(CCCNC(=O)c2cccc3c(=O)c(C)c(-c4ccccc4)oc23)CC1` [Rec 15/2739, 8(3-4-(2-methoxyphenyl)-1-piperazinyl!-propylcarbamoyl)-3-methyl-4-oxo-2-phenyl-4H-1-benzopyran], the pKa in data set [6] (read-out: pKa) is 7. For the same compound, the solubility in data set [7] (aqueous buffer, PBS pH 5.2) was found to be 68 µg/mL (≈ 133 µM); in [7] (aqueous buffer, PBS pH 6.7), 5.2 µg/mL (≈ 10.2 µM); in data set [7] (saline), 1.5 µg/mL (≈ 2.93 µM). The “affinity and selectivity for alpha1 adrenergic receptors” value in [8] was “has affinity and selectivity for the alpha1 adrenergic receptors”. In addition, the “selectivity for lower urinary tract (urethral contractions vs lowering blood pressure)” value in [9] was “substantially more active in antagonizing urethral contractions than in lowering blood pressure”. The “antagonistic effects against contractions induced by potassium chloride” value in the data set on rat bladder strip is reported as “demonstrate antagonistic effects against contractions of rat bladder strip induced by potassium chloride”. The toxicity result in data set [4] is “low toxicity”.
For the compound `COc1cc2nc(N(C)CCCNC(=O)[C@@H]3CCCO3)nc(N)c2cc1OC` [S enantiomer], the “potency in antagonizing phenylephrine induced contraction (R vs S enantiomer)” value (in the data set on rabbit trigone; in data set [5]) was “equally potent” each time.
As for `CCOc1ccccc1OCCNC(C)Cc1ccc(OC)c(S(N)(=O)=O)c1` (stereo not drawn) [Tamsulosin, 5-2-2-(o-Ethoxyphenoxy)-ethyl!amino!propyl!-2-methoxybenzenesulfonamide], the reduction of contraction result in data set [10], in data set [11] and in data set [12] was “reduces the contraction” in each case.
Consider `COc1cc2nc(N3CCN(C(=O)C4CCCO4)CC3)nc(N)c2cc1OC` (stereo not drawn) [Terazosin, reference compound], for which the pKa in data set [6] was 7.1.
